Reference: article doi:10.1101/2025.03.13.643086, “Granzyme-targeting quenched activity-based probes for assessing tumor response to immunotherapy” (bioRxiv, 2025)
Blank lines part the entries; values can stand above or below the molecule they belong to. Non-standard residues stand in square brackets, D forms with d. Residues, ends and D or L forms follow the SMILES beside them. *: point of attachment. Abu(4-SO3H) = N[C@@H](CCS(=O)(=O)O)C(=O)O; ACC = NC(=O)Cc1cc(=O)oc2cc(N*)ccc12; Cya = N[C@@H](CS(=O)(=O)O)C(=O)O

Legend:
[1] = target: recombinant human active GzmB (Homo sapiens, UniProt P10144); experiment: Enzyme cleavage assay / Michaelis-Menten kinetics of fluorogenic substrates with GzmB; type: biochemical; conditions: 10 nM GzmB
Chain of recombinant human active GzmB (P10144 21-247): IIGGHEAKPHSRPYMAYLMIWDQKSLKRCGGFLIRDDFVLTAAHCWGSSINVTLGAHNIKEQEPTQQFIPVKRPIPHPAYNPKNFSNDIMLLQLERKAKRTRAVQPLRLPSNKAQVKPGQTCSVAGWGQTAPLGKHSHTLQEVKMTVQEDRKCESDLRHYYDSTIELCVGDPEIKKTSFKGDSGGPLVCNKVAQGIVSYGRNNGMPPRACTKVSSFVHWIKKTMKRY
Description: (§1) Figure 1. Isosteric substitution of carboxylic acid at P1 with sulfonic acid enhances selectivity for GzmB over Casp-8. (A) Chemical structures of tetrapeptide fluorogenic substrates 1-4. (B) Enzyme cleavage assay. 100 μM of each substrate was incubated with either recombinant human active GzmB (10 nM) or Casp-8 (5 nM) and fluorescence was measured at Ex/Em: 380/460 nm for 1 h. The initial velocity (V0) of each substrate was normalized to that of the control substrate Ac-IEPD-ACC (1). […] (C) Kinetic measurement. The Michaelis-Menten plot and kinetic parameters were generated with varying concentrations of each substrate 1 and 2 incubated with recombinant human active GzmB (10 nM) and Casp-8 (5 nM). […] (D) Chemical structures of inhibitors 5-7. (E) GzmB inhibition. Recombinant human active GzmB (2 U/μL) was incubated with varying concentrations of each inhibitor and the residual activity of GzmB was measured by the cleavage of Ac-IEPD-AMC fluorogenic substrate and normalized to DMSO control.
(§2) All kinetic experiments were performed on a spectrofluorometer (Biotek cytation5 or Synergy|Mx microplate reader) and analyzed using Microsoft Excel and GraphPad Prism. […]
(v/v) Tween-20, pH 7.5. Assay buffers were prepared at room temperature while the kinetic experiments were performed at 37 °C. Data are presented as the mean with standard deviation (at least two independent experiments). For kinetic experiments, pro-GzmB (0.22 mg/mL) was activated with mouse cathepsin C (22 µg/mL in 50 mM MES, 50 mM NaCl, pH 5.5) and diluted in assay buffer. Alternatively, active GzmB at 100 U/µL was purchased from Enzo Life Sciences (#BML-SE238-5000) and diluted in assay buffer. Conditions for individual experiments are […]
(§3) Figure 1B-C: 10 nM of active GzmB or 5 nM of Casp-8 were treated with different substrates (compounds 1-4) and recorded fluorescence (Ex/Em: 380/460 nm) for 1 h at 37 °C. To determine Michaelis-Menten constants, cleavage assays with 10 nM of GzmB or 5 nM of Casp-8 were performed with different concentrations of substrates 1 and 2. […]
(§4) Working concentrations were prepared by further diluting in the assay buffer before use. Mouse pro-GzmB (0.474 mg/mL) was also activated with mCatC (52.14 µg/mL in 50 mM MES, 50 mM NaCl, pH 5.5), diluted in assay buffer and stored as 500 nM aliquots at - 80 °C, which were further diluted in assay buffer to make final working concentrations. In-gel fluorescence images were acquired on a Typhoon FLA9500 instrument while western blot and Coomassie staining images were acquired on an AMHERST ImageQuant 800 instrument.

Casp-8 = Casp-8 (Homo sapiens, UniProt Q14790); experiment: Enzyme cleavage assay / Michaelis-Menten kinetics of fluorogenic substrates with Casp-8; type: biochemical; conditions: 100 μM substrate, 5 nM Casp-8, 1 h, V0 normalized to 1
Description: as §1, §2
(§5) (v/v) Tween-20, pH 7.5. Assay buffers were prepared at room temperature while the kinetic experiments were performed at 37 °C. Data are presented as the mean with standard deviation (at least two independent experiments). […]
(§6) (#BML-SE238-5000) and diluted in assay buffer. Conditions for individual experiments are […]
as §3
Working concentrations were prepared by further diluting in the assay buffer before use. […] In-gel fluorescence images were acquired on a Typhoon FLA9500 instrument while western blot and Coomassie staining images were acquired on an AMHERST ImageQuant 800 instrument.

[2] = substrate: CC[C@H](C)[C@H](NC(C)=O)C(=O)N[C@@H](CCC(=O)O)C(=O)N1CCC[C@H]1C(=O)N[C@@H](CS(=O)(=O)O)C(=O)Nc1ccc2c(CC(N)=O)cc(=O)oc2c1; experiment: as above; type: biochemical, human; conditions: other: 5 nM Casp-8, varying substrate concentrations, 37 °C
Description: as §1, §2, §5, §6, §3, §4

[3] = substrate: CC[C@H](C)[C@H](NC(C)=O)C(=O)N[C@@H](CCC(=O)O)C(=O)N1CCC[C@H]1C(=O)N[C@@H](CC(=O)O)C(=O)Nc1ccc2c(CC(N)=O)cc(=O)oc2c1; experiment: as above; type: biochemical, human; conditions: other: 5 nM Casp-8, varying substrate concentrations, 37 °C
Description: as §1, §2, §5, §6, §3, §4

[4] = 100 μM substrate, 1 h, V0 normalized to 1

cleavage by GzmB compared to Ac-IEPD-ACC (1), in words [1, 4]: routed for cleavage by GzmB
cleavage by Casp-8 compared to Ac-IEPD-ACC (1), in words (Casp-8): decreasing cross-reactivity with Casp-8
Molecule: CC[C@H](C)[C@H](NC(C)=O)C(=O)N[C@@H](CCS(=O)(=O)O)C(=O)N1CCC[C@H]1C(=O)N[C@@H](CS(=O)(=O)O)C(=O)Nc1ccc2c(CC(N)=O)cc(=O)oc2c1 [Compound 4] (Ac-I[Abu(4-SO3H)]P[Cya]-{ACC})

cleavage by GzmB compared to Ac-IEPD-ACC (1), in words [1, 4]: reduced cleavage by GzmB
cleavage by Casp-8 compared to Ac-IEPD-ACC (1), in words (Casp-8): increased cleavage by Casp-8
Molecule: CC[C@H](C)[C@H](NC(C)=O)C(=O)N[C@@H](CCS(=O)(=O)O)C(=O)N1CCC[C@H]1C(=O)N[C@@H](CC(=O)O)C(=O)Nc1ccc2c(CC(N)=O)cc(=O)oc2c1 [Compound 3] (Ac-I[Abu(4-SO3H)]PD-{ACC})

The remaining lines, values behind:

Molecule: CC[C@H](C)[C@H](NC(C)=O)C(=O)N[C@@H](CCC(=O)O)C(=O)N1CCC[C@H]1C(=O)N[C@@H](CS(=O)(=O)O)C(=O)Nc1ccc2c(CC(N)=O)cc(=O)oc2c1 [Compound 2, Ac-IEPCya-ACC] (Ac-IEP[Cya]-{ACC})
increase in turnover (kcat) for GzmB compared to Ac-IEPD-ACC (1) [1]: 10 fold
cleavage efficiency by GzmB compared to Ac-IEPD-ACC (1) [1, 4]: 6 fold
cleavage by Casp-8 compared to Ac-IEPD-ACC (1), in words (Casp-8): cleavage by Casp-8 was reduced

B1: Casp-8 (Homo sapiens) (protein)
chain 1: SESQTLDKVYQMKSKPRGYCLIINNHNFAKAREKVPKLHSIRDRNGTHLDAGALTTTFEELHFEIKPHDDCTVEQIYEILKIYQLMDHSNMDCFICCILSHGDKGIIYGTDGQEAPIYELTSQFTGLKCPSLAGKPKVFFIQACQGDNYQKGIPVETD
chain 2: LSSPQTRYIPDEADFLLGMATVNNCVSYRNPAEGTWYIQSLCQSLRERCPRGDDILTILTEVNYEVSNKDDKKNMGKQMPQPTFTLRKKLVFPSD
Km [2]: 506.3 µM
kcat [2]: 0.087 s⁻¹
kcat/Km [2]: 172 M⁻¹ s⁻¹
Km [3]: 359.9 µM
kcat [3]: 0.090 s⁻¹
kcat/Km [3]: 250 M⁻¹ s⁻¹
